Experimental data as given in patent US8084459B2, “Substituted quinazolinones for treating neurological conditions” (Prana Biotechnology Ltd, priority 2004, dated 2011).

Columns and labels:
[1] = Assay 16 mouse plasma levels of test compounds; assay type: in vivo; details: for Conc. in mouse plasma / concentration at 30 min / concentration at 60 min: single mouse; for Assay 16 Mice plasma concentration: highest level found in mice (Up to), oral dosing 30 mg/kg described for PB 1075-1077; for concentration at 30 min / concentration at 60 min: mouse, plasma, po, 30 mg/kg, read-out: Conc. in mouse plasma
In short: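 Compound given orally by gavage at 30 mg/kg as CMC suspension to four mice; two sacrificed at 30 min and two at 60 min, plasma from cardiac blood. Plasma levels by LC/MS (triple quadrupole, C8 column, ACN/water 0.05% formic acid gradient) after ACN protein precipitation.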

Aβ 1-42 = biological target: T1, Aβ 1-42 (Homo sapiens, UniProt P05067); experiment: Assay 1 Fluorometric H2O2 assay (peroxide); assay type: biochemical; details: inhibition of H2O2 generation by Aβ with copper
T1 construct: The reaction solutions contained Aβ 1-42 at concentrations
T1 sequence (P05067 672-713 limits assumed): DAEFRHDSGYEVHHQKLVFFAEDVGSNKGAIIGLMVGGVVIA
In short: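 DCF fluorescence (ex 485/em 530 nm) after 60 min at 37 °C in PBS pH 7.4; Aβ 1-42 (50 nM–1 μM) with Cu-Gly (2:1 to Aβ), dopamine 5 μM or ascorbate, deacetylated DCF 100 μM, HRP 0.1 μM, and test compound. H2O2 quantified against H2O2 standards.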

[2] = 30 min after oral dosing at 30 mg/kg
[3] = 60 min after oral dosing at 30 mg/kg

| Structure (SMILES) | Conc. in mouse plasma ([1]; 30 min after oral dosing at 30 mg/kg, listed as PB 1075, 30 mg/kg) [ng/mL] | Conc. in mouse plasma ([1]; 60 min after oral dosing at 30 mg/kg, listed as PB 1075, 30 mg/kg) [ng/mL] | Assay 16 Mice plasma concentration [1] | concentration at 30 min [1, 2] [ng/mL] | concentration at 60 min [1, 3] [ng/mL] | IC50 (Aβ 1-42) [nM] | Conc. in mouse plasma ([1]; 30 min after oral dosing at 30 mg/kg, listed as PB 1077, 30 mg/kg) [ng/mL] | Conc. in mouse plasma ([1]; 60 min after oral dosing at 30 mg/kg, listed as PB 1077, 30 mg/kg) [ng/mL] |
| --- | --- | --- | --- | --- | --- | --- | --- | --- |
| O=c1c2c(Cl)cc(Cl)c(O)c2ncn1CCN1CCCC1 [Compound 1075] | 298.46 | 424.81 | Up to 520 ng/mL | 431 | 520 | 730 | – | – |
| O=c1c2c(Cl)cc(Cl)c(O)c2ncn1Cc1ccccn1 [Compound 1077] | – | – | Up to 984 ng/mL | 731 | 495 | 480 | 984.7 | 752.8 |
| Cc1nc(Cn2cnc3c(O)c(Cl)cc(Cl)c3c2=O)cs1 [Compound 1084] | – | – | Upto 2439 ng/mL | – | – | 360 | – | – |
| Cc1noc(C)c1Cn1cnc2c(O)c(Cl)cc(Cl)c2c1=O [Compound 1085] | – | – | Upto 3644 ng/mL | – | – | 370 | – | – |
| Br.CCCn1cnc2c(O)c(Cl)cc(Cl)c2c1=O [Compound 1097] | – | – | Upto 261 ng/mL in | – | – | 280 | – | – |
